Consider nine molecules from ChEMBL document CHEMBL1139203, “Syntheses and antiproliferative evaluation of oxyphenisatin derivatives” (Bioorg Med Chem Lett, 2007).

Data set [1] in a line: Antiproliferative activity against human MDA468 cells. The format is functional, cell-based. As to conditions: MDA-MB-468.
A short description of data set [2]: Antiproliferative activity against human MDA231 cells. The format is functional, cell-based. The conditions noted are these: MDA-MB-231.
A further data set addresses Cytochrome P450 2C9 (Homo sapiens, UniProt P11712). Put plainly: Inhibition of human CYP2C9. It counts as ADME.
The next data set concerns the target T1, Cytochrome P450 1A2 (Homo sapiens, UniProt P05177).
T1 sequence (P05177 whole entry): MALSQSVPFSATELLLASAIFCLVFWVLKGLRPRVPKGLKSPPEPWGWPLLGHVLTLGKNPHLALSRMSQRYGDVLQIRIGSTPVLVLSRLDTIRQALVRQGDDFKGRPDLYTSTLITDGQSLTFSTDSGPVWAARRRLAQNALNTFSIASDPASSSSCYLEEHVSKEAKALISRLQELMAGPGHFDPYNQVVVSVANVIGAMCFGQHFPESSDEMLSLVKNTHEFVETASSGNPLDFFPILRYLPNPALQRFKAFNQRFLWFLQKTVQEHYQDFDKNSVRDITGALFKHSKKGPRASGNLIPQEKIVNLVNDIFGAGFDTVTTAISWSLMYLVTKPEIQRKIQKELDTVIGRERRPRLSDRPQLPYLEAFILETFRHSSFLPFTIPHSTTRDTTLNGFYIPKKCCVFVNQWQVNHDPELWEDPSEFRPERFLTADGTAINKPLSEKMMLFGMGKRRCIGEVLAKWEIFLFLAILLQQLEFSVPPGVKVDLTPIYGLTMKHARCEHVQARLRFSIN
The data set is described as follows: Inhibition of human CYP1A2. It counts as ADME.

Data set [3] can be described thus: Permeability across human Caco-2 cell membrane. It counts as ADME, cell-based. The conditions noted are these: read-out: permeability. (In general: Caco-2 monolayers are a common model of the intestinal barrier.)
Data set [4] in a line: Aqueous solubility at pH 7.0. The format is physicochemical.
For a further data set, the target named is Cytochrome P450 3A4 (Homo sapiens, UniProt P08684). Put plainly: Inhibition of human CYP3A4. It counts as ADME.
In another data set the target is Cytochrome P450 2C19 (Homo sapiens, UniProt P33261). Put plainly: Inhibition of human CYP2C19. It counts as ADME.
In another data set the target is Cytochrome P450 2D6 (Homo sapiens, UniProt P10635). Put plainly: Inhibition of human CYP2D6. The format is ADME.
The test system of a further data set is Serum. Put plainly: Protein binding to human serum. It counts as ADME, cell-free.

In brackets after ≈: the same amount, converted by molar mass.

Sequence of Cytochrome P450 2C19 (P33261 whole entry): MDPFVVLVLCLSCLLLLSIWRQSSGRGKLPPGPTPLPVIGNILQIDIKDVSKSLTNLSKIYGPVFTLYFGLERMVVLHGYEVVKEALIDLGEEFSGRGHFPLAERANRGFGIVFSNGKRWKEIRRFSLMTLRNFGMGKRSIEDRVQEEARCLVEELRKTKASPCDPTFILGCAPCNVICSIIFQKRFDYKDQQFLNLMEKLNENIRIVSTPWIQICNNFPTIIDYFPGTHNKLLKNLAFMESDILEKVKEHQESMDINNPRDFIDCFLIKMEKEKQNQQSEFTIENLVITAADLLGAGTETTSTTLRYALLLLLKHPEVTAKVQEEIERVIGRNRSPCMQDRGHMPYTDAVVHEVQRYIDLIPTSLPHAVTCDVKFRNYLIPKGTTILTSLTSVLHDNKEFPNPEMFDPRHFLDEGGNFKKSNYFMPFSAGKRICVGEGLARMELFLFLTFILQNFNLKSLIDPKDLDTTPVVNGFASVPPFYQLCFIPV
Sequence of Cytochrome P450 3A4 (P08684 whole entry): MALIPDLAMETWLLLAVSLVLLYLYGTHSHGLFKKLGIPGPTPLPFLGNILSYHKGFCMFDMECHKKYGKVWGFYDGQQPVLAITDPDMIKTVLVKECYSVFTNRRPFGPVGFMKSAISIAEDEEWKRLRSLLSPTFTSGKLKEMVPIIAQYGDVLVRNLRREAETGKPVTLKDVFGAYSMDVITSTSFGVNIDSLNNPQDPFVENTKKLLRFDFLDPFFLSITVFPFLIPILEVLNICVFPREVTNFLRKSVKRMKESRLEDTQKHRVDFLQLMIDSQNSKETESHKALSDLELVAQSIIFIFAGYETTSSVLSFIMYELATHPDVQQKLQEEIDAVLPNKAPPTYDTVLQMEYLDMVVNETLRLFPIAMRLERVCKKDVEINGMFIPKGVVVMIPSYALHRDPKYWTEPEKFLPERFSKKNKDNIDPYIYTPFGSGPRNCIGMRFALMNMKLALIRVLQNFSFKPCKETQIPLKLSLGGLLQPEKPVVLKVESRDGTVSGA
Sequence of Cytochrome P450 2C9 (P11712 whole entry): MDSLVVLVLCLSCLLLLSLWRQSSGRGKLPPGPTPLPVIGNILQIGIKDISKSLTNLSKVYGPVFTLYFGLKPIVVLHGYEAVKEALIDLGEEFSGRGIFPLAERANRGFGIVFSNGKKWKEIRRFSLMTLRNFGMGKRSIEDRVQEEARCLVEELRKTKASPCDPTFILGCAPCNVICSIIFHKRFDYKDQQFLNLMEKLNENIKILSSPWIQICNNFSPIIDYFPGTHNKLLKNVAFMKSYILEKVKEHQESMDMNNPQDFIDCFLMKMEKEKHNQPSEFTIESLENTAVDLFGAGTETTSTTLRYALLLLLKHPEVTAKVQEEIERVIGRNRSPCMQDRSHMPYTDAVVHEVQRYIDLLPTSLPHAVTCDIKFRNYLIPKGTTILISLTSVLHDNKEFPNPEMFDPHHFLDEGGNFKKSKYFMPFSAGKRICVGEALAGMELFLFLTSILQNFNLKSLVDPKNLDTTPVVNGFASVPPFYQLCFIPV
Sequence of Cytochrome P450 2D6 (P10635 whole entry): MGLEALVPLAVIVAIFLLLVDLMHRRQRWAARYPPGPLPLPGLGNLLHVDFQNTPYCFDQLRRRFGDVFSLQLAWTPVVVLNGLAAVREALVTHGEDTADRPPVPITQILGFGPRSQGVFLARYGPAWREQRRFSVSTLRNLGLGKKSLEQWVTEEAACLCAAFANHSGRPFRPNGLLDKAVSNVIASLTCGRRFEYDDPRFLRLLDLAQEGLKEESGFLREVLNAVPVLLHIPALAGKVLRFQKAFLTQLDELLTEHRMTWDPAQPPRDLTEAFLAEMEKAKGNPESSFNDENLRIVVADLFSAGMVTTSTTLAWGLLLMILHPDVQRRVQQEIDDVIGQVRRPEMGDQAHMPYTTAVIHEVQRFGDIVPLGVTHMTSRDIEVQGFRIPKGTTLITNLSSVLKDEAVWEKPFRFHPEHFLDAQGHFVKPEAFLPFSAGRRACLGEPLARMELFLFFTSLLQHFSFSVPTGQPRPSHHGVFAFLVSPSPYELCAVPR

As for `O=C(O)c1cccc2c1NC(=O)C2(c1ccc(O)cc1)c1ccc(O)cc1`, the IC50 in data set [1] and in data set [2] was over 3000 nM each time.
As to `N#Cc1cccc2c1NC(=O)C2(c1ccc(O)cc1)c1ccc(O)cc1`, the concentration for half-maximal inhibition (IC50) in data set [1] was 57 nM; in data set [2] it was over 3000 nM.
On the same counts, the results for `Cc1cccc2c1NC(=O)C2(c1ccc(O)cc1)c1ccc(O)cc1` are 27 nM and over 3000 nM.
For `O=C1Nc2c(C(F)(F)F)cccc2C1(c1ccc(O)cc1)c1ccc(O)cc1`, the Activity at Cytochrome P450 2C9 was 1 µM; at Cytochrome P450 1A2, over 10 µM; at Cytochrome P450 3A4, over 10 µM; at Cytochrome P450 2C19 it was 1 µM; at Cytochrome P450 2D6, over 10 µM. In [3], the Papp worked out at 1.96 ×10⁻⁶ cm/s. In data set [4], this molecule yielded a solubility of 640 µg/mL (≈ 1660 µM).
On to `O=C1Nc2ccccc2C1(c1ccc(O)cc1)c1ccc(O)cc1` [OXYPHENISATINE], for which the values for the half-maximal inhibitory concentration (IC50) in data set [1] and in data set [2] were 112 nM and over 3000 nM, respectively.
For `O=C1Nc2c(I)cccc2C1(c1ccc(O)cc1)c1ccc(O)cc1`, the 50% inhibitory concentration (IC50) was 62 nM in data set [1] and over 3000 nM in [2].
With `O=C1Nc2c(ccc(F)c2F)C1(c1ccc(O)cc1)c1ccc(O)cc1`, the Activity at Cytochrome P450 2C9 was 1 µM; on Cytochrome P450 1A2 it was over 10 µM; at Cytochrome P450 3A4 it was over 10 µM; at Cytochrome P450 2C19 it was 1 µM; on Cytochrome P450 2D6 it was over 10 µM; in the data set with Serum it was 98%. The Papp in [3] is 4.31 ×10⁻⁶ cm/s. In addition, in [4], the solubility worked out at 230 µg/mL (≈ 651 µM). Further, the concentration for half-maximal inhibition (IC50) was 3 nM in data set [1] and over 3000 nM in [2].
`O=C1Nc2c(ccc3c2CCCCC3)C1(c1ccc(O)cc1)c1ccc(O)cc1`: the IC50 was 55 nM in data set [1] and over 3000 nM in data set [2].
`COc1ccc(C2(c3ccc(OC)cc3)C(=O)Nc3ccccc32)cc1`: the 50% inhibitory concentration (IC50) is 1800 nM in data set [1] and over 3000 nM in data set [2].

By IC50 is commonly meant the concentration at which inhibition is half-maximal. Low readings indicate higher potency, high ones lower potency. As a reminder, the solubility is how much of the substance goes into solution per volume. Lower therefore signals a poorly soluble substance.
